Assay results reported in PMC5380659, “Unique charge-dependent constraint on collagen recognition by integrin α10β1” (Matrix Biology, 2017).
“Also recorded” adds a separate entry of the source.

Columns and labels:
[1] = test system: C2C12-α11β1 cells; assay: xCELLigence real-time adhesion of C2C12-α11β1 cells; type: cell-based, mouse; conditions: up to 1 h, compared to GFOGER, Fig. 6D
[2] = test system: α10β1; assay: Overall recognition by α10β1 (I domain and C2C12-α10β1 cells, summary); conditions: abstract and discussion; I domain and/or C2C12-α10β1 cells
Experimental: (§1) I domain adhesion was determined colorimetrically, as described, here termed solid phase binding assay (SPBA). Peptides were coated at 10 μg/ml for 1 h at 22 °C on Immulon-2 HB 96-well plates (Thermo Life Sciences, Basingstoke, UK), and blocked for 1 h with 200 μl of TBS containing 50 mg/ml bovine serum albumin. Wells were washed four times with 200 μl of the adhesion buffer (TBS with 1 mg/ml bovine serum albumin) before adding 100 μl of adhesion buffer containing 10 μg/ml of recombinant GST I domains in the presence of either 2 mM MgCl2 or EDTA for 1 h at room temperature. Wells were washed five times with 200 μl of adhesion buffer containing MgCl2 or EDTA, before adding 100 μl of adhesion buffer containing the anti-GST-HRP conjugate at 1:10,000 dilution for 1 h at room temperature. After washing, colour was developed using an ImmunoPure TMB Substrate Kit (Pierce) according to the manufacturer's instructions.
The mouse myoblast cell line, C2C12, (control and transfectants, C2C12-α1β1, C2C12-α2β1, C2C12-α10β1 or C2C12-α11β1) was maintained in RPMI medium containing 10% fetal bovine serum, 2 mM glutamine, 100 IU/ml penicillin, 100 μg/ml streptomycin, and 2.5 μg/ml amphotericin. Cells were harvested by centrifugation, washed, and suspended at 0.5 × 10^6/ml in Tris-buffered saline supplemented with 5.5 mM glucose and either 2 mM EDTA or 2 mM MgCl2. SPBA was performed as follows: 100 μl of the cell suspension was added to peptide-coated wells [42] at 20 °C for 60 min. Cell adhesion was determined colorimetrically after lysis, using a lactate dehydrogenase (LDH)-based cell detection kit (Roche Diagnostics) according to the supplier's instructions.
(§2) To quantitate C2C12-α10β1 binding to collagen peptides, we used the impedance-based xCELLigence system (Acea) that allows label-free, dynamic monitoring of cell adhesion in real-time. The assay system expresses the adhesion-dependent rise in well impedance in units of cell index (CI), defined as (Rn − Rb) / 15; where Rn is the electrical impedance of each cell-containing well and Rb is the background impedance of the well with medium alone

[3] = test system: collagen-binding integrins; set-up: method as in 3 sources, ref [7], [8] = [7]; PMID 10778855; doi:10.1016/S0092-8674(00)80622-4; 7 Emsley J. Knight C.G. Farndale R.W. Barnes M.J. Liddington R.C. Structural basis of collagen recognition by integrin alpha2beta1 Cell 101 1 2000 47 56 10778855 10.1016/S0092-8674(00)80622-4 || [8]; PMID 16326707; doi:10.1074/jbc.M509818200; 8 Raynal N. Hamaia S.W. Siljander P.R. Maddox B. Peachey A.R. Fernandez R. Foley L.J. Slatter D.A. Jarvis G.E. Farndale R.W. Use of synthetic peptides to locate novel integrin alpha2beta1-binding moti ||| ref [8], [10] = [8]; PMID 16326707; doi:10.1074/jbc.M509818200; 8 Raynal N. Hamaia S.W. Siljander P.R. Maddox B. Peachey A.R. Fernandez R. Foley L.J. Slatter D.A. Jarvis G.E. Farndale R.W. Use of synthetic peptides to locate novel integrin alpha2beta1-binding moti || [10]; PMID 16043429; doi:10.1074/jbc.M502431200; 10 Kim J.K. Xu Y. Xu X. Keene D.R. Gurusiddappa S. Liang X. Wary K.K. Hook M. A novel binding site in collagen type III for the integrins, alpha 1beta 1 and alpha 2beta 1 J. Biol. Chem. 280 2005 32512 ||| ref [11] = [11]; PMID 10986291; doi:10.1074/jbc.M007668200; 11 Xu Y. Gurusiddappa S. Rich R.L. Owens R.T. Keene D.R. Mayne R. Hook A. Hook M. Multiple binding sites in collagen type I for the integrins α1β1 and α2β1 J. Biol. Chem. 275 2000 38981 38989 10986291; conditions: cited from earlier work
Text: Many related motifs have now been identified using the Collagen Toolkits developed in this laboratory for the purpose. These are libraries of overlapping peptides of 27 amino acids of collagen primary sequence (guest sequence), flanked ...

[4] = test system: C2C12-α2β1 cells; assay: xCELLigence real-time adhesion of C2C12-α2β1 cells; type: cell-based, mouse; conditions: up to 1 h, compared to GFOGER, Fig. 6B
[5] = test system: C2C12-α1β1 cells; assay: xCELLigence real-time adhesion of C2C12-α1β1 cells; type: cell-based, mouse; conditions: up to 1 h, compared to GFOGER, Fig. 6A
[6] = test system: C2C12-α10β1 cells; assay: xCELLigence real-time adhesion of C2C12-α10β1 cells; type: cell-based, mouse; conditions: up to 1 h, compared with GPP10 negative control, Fig. 6C
Experimental: Fig. 3 Binding of α10β1-transfected C2C12 cells to collagens and selected Toolkit peptides. Peptides or collagens were coated on ePlates as described, then cells were added in the presence of 2 mM Mg^2 + or EDTA, and Cell Index value was collected over 1 h. […] B: time courses are shown of adhesion to selected Toolkit peptides or GPP-10.
as §2
Briefly, C2C12 cells were seeded at 2.5 × 10^4 cells/well in an E-plate (Roche Applied Science) pre-coated with peptides as for SPBA, and CI was measured for up to 2 h.

[7] = test system: Other I domains that lack such a positive residue; assay: SPBA of I domains that lack the positive residue (wild type); type: binding, human; conditions: I domains lacking a positive residue at position 215
Experimental: Fig. 8 Arginine substitution of I domain surface reduces binding to Toolkit peptide III-4. Wild type I domain from α1, α2 and α10 were allowed to adhere to Toolkit peptide III-4 that contains GROGER, as described in Fig. 1, and binding is shown in A, B and C, respectively. In D and E, the natural glutamine residues of α1, Q214, and of α2, Q215, was replaced with arginine. In F, the natural arginine, R215, of α10 was replaced with glutamine.
as §1

[8] = test system: human recombinant GST-α10 I domain; assay: Solid-phase binding assay (SPBA) of wild-type α10 I domain; conditions: short THPs, 2 mM Mg^2 +, 1 h, Fig. 4A
Experimental: The α10 I domain was applied to the collagen II and III Toolkits in the presence or absence of Mg^2 +, and was detected using anti-GST, as described in Experimental: data are shown in Fig. 1. The background response is indicated by wells coated with the control peptide, GPP10 (corresponding to the host sequence), or BSA.
as §1

Substance	Adhesion of C2C12-α11β1 cells to short THP (time course) [1]	Recognition by α10β1, summary [2]	Ligand of collagen-binding integrins, GROGER ([3]; ref [8], [10])	Adhesion of C2C12-α2β1 cells to short THP (time course) [4]	Adhesion of C2C12-α1β1 cells to short THP (time course) [5]	Cell adhesion to short THPs (time course) [6]	Binding by other I domains [7]	Binding of α10 I domain to short triple-helical peptides [8]	Ligand of collagen-binding integrins, highest affinity motif ([3]; in collagens I and II, ref [7], [8])
GROGER [short triple-helical peptide containing GROGER]	bound quite well	only weakly recognised by α10β1; also recorded: compromised in the context of α10β1; also recorded: α10-repellent	quite a good ligand	bound quite well	bound quite well	poor binding; also recorded: of comparable level to the GPP10 negative control peptide	bind GROGER well	–	–
GLOGEN [short THP containing GLOGEN]	–	selective ligand in preference to GFOGER; also recorded: high-affinity site	–	–	–	–	–	bound strongly	–
GFOGER [THP containing GFOGER served as positive control, reference compound]	–	–	–	–	–	–	–	less well	highest affinity ligand
